Results reported in patent US10577363B2, “Substituted piperidine compounds” (EPIZYME, INC., priority 2014, dated 2020).

What was measured:
[1] = biological target: T1, SMYD3 (Homo sapiens (Human), UniProt Q9H7B4); assay: SMYD3 cell assay (Trimethyl-MEKK2 In-Cell Western in 293T/17 cells); type: cell-based
Method in brief: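 In-Cell Western readout: methanol-fixed cells stained for trimethyl-MEKK2 and flag tag, ratio per well normalized to DMSO and background controls.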

[2] = biological target: T1, SMYD3; assay: SMYD3 biochemical assay (SPA, 3H-SAM methylation of MEKK2 protein substrate)
Method in brief: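 Enzyme: untagged full-length human SMYD3 from E. coli; substrate GST-tagged MEKK2 from insect cells. Buffer 25 mM Tris-Cl pH 8.0, 1 mM TCEP, 0.005% BSG/Tween 20. 30 min compound–enzyme preincubation at RT; 3H-SAM/MEKK2 start; stop with cold SAM (100 uM final); SPA readout in cpm.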

[3] = average of n = 1 to n = 50, read-out: SMYD3 Cell IC50
[4] = average of n = 1 to n = 50, read-out: SMYD3 Biochem IC50

T1 sequence (Q9H7B4 whole entry): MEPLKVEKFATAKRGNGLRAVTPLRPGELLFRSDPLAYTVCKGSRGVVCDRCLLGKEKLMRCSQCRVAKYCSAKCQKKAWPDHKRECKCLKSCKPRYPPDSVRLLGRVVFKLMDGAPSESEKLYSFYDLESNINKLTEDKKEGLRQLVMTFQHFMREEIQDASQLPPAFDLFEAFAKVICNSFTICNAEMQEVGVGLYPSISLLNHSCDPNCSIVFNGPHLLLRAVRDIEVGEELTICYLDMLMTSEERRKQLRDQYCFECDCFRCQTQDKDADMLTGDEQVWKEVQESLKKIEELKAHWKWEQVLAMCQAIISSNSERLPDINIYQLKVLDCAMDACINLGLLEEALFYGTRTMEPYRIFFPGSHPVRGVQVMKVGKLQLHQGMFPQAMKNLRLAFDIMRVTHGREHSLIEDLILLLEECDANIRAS

Row | SMILES | IC50 [1, 3] [µM] | IC50 [2, 4] [µM] | IC50 ([1]; read-out: SMYD3 Cell IC50*) [µM] | IC50 ([2]; read-out: SMYD3 Biochem IC50*) [µM]
1 | O=C(N[C@H]1C[C@H]2CC[C@@H](C1)N2S(=O)(=O)CCc1ccncc1)c1cc(C2CC2)on1 [compound 739, 5-cyclopropyl-N-((1R,3r,5S)-8-((2-(pyridin-4-yl)ethyl)sulfonyl)-8-azabicyclo[3.2.1]octan-3-yl)isoxazole-3-carboxamide] | 2.4 | 0.491 |  | 
2 | CN(CCN1CCOCC1)CCS(=O)(=O)N1[C@@H]2CC[C@H]1C[C@@H](NC(=O)c1cc(C3CC3)on1)C2 [compound 742, 5-cyclopropyl-N-((1R,3r,5S)-8-((2-(methyl(2-morpholinoethyl)amino)ethyl)sulfonyl)-8-azabicyclo[3.2.1]octan-3-yl)isoxazole-3-carboxamide] | 0.899 | 0.513 |  | 
3 | O=C(N[C@H]1C[C@H]2CC[C@@H](C1)N2S(=O)(=O)CCNCCN1CCOCC1)c1cc(C2CC2)on1 [compound 743, 5-cyclopropyl-N-((1R,3r,5S)-8-((2-((2-morpholinoethyl)amino)ethyl)sulfonyl)-8-azabicyclo[3.2.1]octan-3-yl)isoxazole-3-carboxamide] | 1.82 | 0.514 |  | 
4 | C[C@@H]1C[C@H](NC(=O)c2cc(C3CC3)on2)CCN1C(=O)c1ccc2c(c1)ncn2C [compound 747, 5-cyclopropyl-N-((2R,4R)-2-methyl-1-(1-methyl-1H-benzo[d]imidazole-5-carbonyl)piperidin-4-yl)isoxazole-3-carboxamide] | 2.41 | 0.583 |  | 
5 | CN(CCc1ccccc1)CCS(=O)(=O)N1[C@@H]2CC[C@H]1C[C@@H](NC(=O)c1cc(C3CC3)on1)C2 [compound 748, 5-cyclopropyl-N-((1R,3r,5S)-8-((2-(methyl(phenethyl)amino)ethyl)sulfonyl)-8-azabicyclo[3.2.1]octan-3-yl)isoxazole-3-carboxamide] | 3.18 | 0.584 |  | 
6 | O=C(N[C@H]1C[C@H]2CC[C@@H](C1)N2S(=O)(=O)N1CCNC(Cc2ccccc2)C1)c1cc(C2CC2)on1 (stereo partly drawn) [compound 749, N-((1R,3r,5S)-8-((3-benzylpiperazin-1-yl)sulfonyl)-8-azabicyclo[3.2.1]octan-3-yl)-5-cyclopropylisoxazole-3-carboxamide] | 3.56 | 0.59 |  | 
7 | O=C(N[C@@H]1C[C@H]2CCC[C@@H](C1)N2S(=O)(=O)c1cncc(F)c1)c1cc(C2CC2)on1 [compound 753, 5-cyclopropyl-N-((1R,3s,5S)-9-((5-fluoropyridin-3-yl)sulfonyl)-9-azabicyclo[3.3.1]nonan-3-yl)isoxazole-3-carboxamide] | 2.04 | 0.672 |  | 
8 | C[C@H]1C[C@@H](NC(=O)c2cc(C3CC3)on2)CCN1S(=O)(=O)NCc1c(F)cccc1Cl [compound 754, N-((2S,4S)-1-(N-(2-chloro-6-fluorobenzyl)sulfamoyl)-2-methylpiperidin-4-yl)-5-cyclopropylisoxazole-3-carboxamide] | 3.71 | 0.676 |  | 
9 | C[C@H]1C[C@@H](NC(=O)c2cc(C3CC3)on2)CCN1S(=O)(=O)c1ccnc(N)c1 [compound 756, N-((2S,4S)-1-((2-aminopyridin-4-yl)sulfonyl)-2-methylpiperidin-4-yl)-5-cyclopropylisoxazole-3-carboxamide] | 1.77 | 0.684 |  | 
10 | CN(C1CCNCC1)S(=O)(=O)N1CC[C@@H](NC(=O)c2cc(C3CC3)on2)C[C@H]1Cc1ccccc1 [compound 757, N-((2R,4R)-2-benzyl-1-(N-methyl-N-(piperidin-4-yl)sulfamoyl)piperidin-4-yl)-5-cyclopropylisoxazole-3-carboxamide] | 7.61 | 0.726 |  | 
11 | O=C(N[C@H]1C[C@H]2CC[C@@H](C1)N2S(=O)(=O)N1CC2COCC(C1)N2)c1cc(C2CC2)on1 [compound 758, N-((1R,3r,5S)-8-((3-oxa-7,9-diazabicyclo[3.3.1]nonan-7-yl)sulfonyl)-8-azabicyclo[3.2.1]octan-3-yl)-5-cyclopropylisoxazole-3-carboxamide] | 1.65 | 0.731 |  | 
12 | CC(=O)NCc1ccc(S(=O)(=O)N2CC[C@H](NC(=O)c3cc(C4CC4)on3)C[C@@H]2C)cc1 [compound 761, N-((2S,4S)-1-((4-(acetamidomethyl)phenyl)sulfonyl)-2-methylpiperidin-4-yl)-5-cyclopropylisoxazole-3-carboxamide] | 2.85 | 0.751 |  | 
13 | COCC1CCCN1CCS(=O)(=O)N1[C@@H]2CC[C@H]1C[C@@H](NC(=O)c1cc(C3CC3)on1)C2 (stereo partly drawn) [compound 762, 5-cyclopropyl-N-((1R,3r,5S)-8-((2-(2-(methoxymethyl)pyrrolidin-1-yl)ethyl)sulfonyl)-8-azabicyclo[3.2.1]octan-3-yl)isoxazole-3-carboxamide] | 2.07 | 0.77 |  | 
14 | C[C@@H]1C[C@H](NC(=O)c2cc(C3CC3)on2)CCN1C(=O)c1ccc(OCCN2CCNCC2)cc1 [compound 764, 5-cyclopropyl-N-((2R,4R)-2-methyl-1-(4-(2-(piperazin-1-yl)ethoxy)benzoyl)piperidin-4-yl)isoxazole-3-carboxamide] | 9.67 | 0.806 |  | 
15 | CCN1CCN(S(=O)(=O)N2[C@@H]3CCC[C@@H]2CC(NC(=O)c2cc(C4CC4)on2)C3)CC1 (stereo partly drawn) [compound 765, 5-cyclopropyl-N-((1R,5R)-9-((4-ethylpiperazin-1-yl)sulfonyl)-9-azabicyclo[3.3.1]nonan-3-yl)isoxazole-3-carboxamide] | 2.42 | 0.836 |  | 
16 | O=C(N[C@H]1C[C@H]2CC[C@@H](C1)N2S(=O)(=O)[C@H]1CC[C@@H](NCCO)CC1)c1cc(C2CC2)on1 [compound 767, 5-cyclopropyl-N-((1R,3R,5S)-8-(((1S,4S)-4-((2-hydroxyethyl)amino)cyclohexyl)sulfonyl)-8-azabicyclo[3.2.1]octan-3-yl)isoxazole-3-carboxamide] |  |  | 0.0194 | 0.0004

Second part, led by results:

Row | IC50 [1, 3] [µM] | IC50 [2, 4] [µM] | SMILES | IC50 ([1]; read-out: SMYD3 Cell IC50*) [µM] | IC50 ([2]; read-out: SMYD3 Biochem IC50*) [µM]
17 | 6.94 | 0.469 | C[C@H]1C[C@@H](NC(=O)c2cc(C3CC3)on2)CCN1S(=O)(=O)N1CCNCC1Cc1ccccc1 (stereo partly drawn) [compound 737, N-((2S,4S)-1-((2-benzylpiperazin-1-yl)sulfonyl)-2-methylpiperidin-4-yl)-5-cyclopropylisoxazole-3-carboxamide] |  | 
18 | 2.82 | 0.477 | C[C@H]1CN(S(=O)(=O)CC2CCN(CCN3CCOCC3)CC2)CC[C@H]1NC(=O)c1cc(C2CC2)on1 [compound 738, 5-cyclopropyl-N-((3S,4R)-3-methyl-1-(((1-(2-morpholinoethyl)piperidin-4-yl)methyl)sulfonyl)piperidin-4-yl)isoxazole-3-carboxamide] |  | 
19 | 2.35 | 0.518 | O=C(N[C@@H]1CCN(S(=O)(=O)CC2CCNCC2)[C@H](Cc2ccccc2)C1)c1cc(C2CC2)on1 [compound 744, N-((2R,4R)-2-benzyl-1-((piperidin-4-ylmethyl)sulfonyl)piperidin-4-yl)-5-cyclopropylisoxazole-3-carboxamide] |  | 
20 | 2.64 | 0.533 | O=C(N[C@H]1CCN(S(=O)(=O)CC2CCCN2)[C@@H](Cc2ccccc2)C1)c1cc(C2CC2)on1 (stereo partly drawn) [compound 745, N-((2S,4S)-2-benzyl-1-((pyrrolidin-2-ylmethyl)sulfonyl)piperidin-4-yl)-5-cyclopropylisoxazole-3-carboxamide] |  | 
21 | 1.66 | 0.541 | C[C@@H]1CN(S(=O)(=O)CCN2CCCC2)[C@H](C)C[C@@H]1NC(=O)c1cc(C2CC2)on1 [compound 746, 5-cyclopropyl-N-((2R,4S,5R)-2,5-dimethyl-1-((2-(pyrrolidin-1-yl)ethyl)sulfonyl)piperidin-4-yl)isoxazole-3-carboxamide] |  | 
22 | 3.47 | 0.625 | COCCCN1CCC(CS(=O)(=O)N2CC[C@H](NC(=O)c3cc(C4CC4)on3)C[C@@H]2Cc2ccccc2)CC1 [compound 750, N-((2S,4S)-2-benzyl-1-(((1-(3-methoxypropyl)piperidin-4-yl)methyl)sulfonyl)piperidin-4-yl)-5-cyclopropylisoxazole-3-carboxamide] |  | 
23 | 2.89 | 0.633 | C[C@H]1C[C@@H](NC(=O)c2cc(C3CC3)on2)CCN1S(=O)(=O)N1CCN[C@H](c2ccccc2)C1 [compound 751, 5-cyclopropyl-N-((2S,4S)-2-methyl-1-(((R)-3-phenylpiperazin-1-yl)sulfonyl)piperidin-4-yl)isoxazole-3-carboxamide] |  | 
24 | 2.49 | 0.667 | O=C(N[C@@H]1CCN(S(=O)(=O)C2CCNC2)[C@H](Cc2ccccc2)C1)c1cc(C2CC2)on1 (stereo partly drawn) [compound 752, N-((2R,4R)-2-benzyl-1-(pyrrolidin-3-ylsulfonyl)piperidin-4-yl)-5-cyclopropylisoxazole-3-carboxamide] |  | 
25 | 2.38 | 0.677 | C[C@@H]1CN(S(=O)(=O)N2CC[C@H](NC(=O)c3cc(C4CC4)on3)C[C@@H]2C)C[C@H](C)N1C [compound 755, 5-cyclopropyl-N-((2S,4S)-2-methyl-1-(((3S,5R)-3,4,5-trimethylpiperazin-1-yl)sulfonyl)piperidin-4-yl)isoxazole-3-carboxamide] |  | 
26 | 2.06 | 0.733 | C[C@H]1C[C@@H](NC(=O)c2cc(C3CC3)on2)CCN1S(=O)(=O)N1CCN(C)[C@H](CCO)C1 [compound 759, 5-cyclopropyl-N-((2S,4S)-1-(((R)-3-(2-hydroxyethyl)-4-methylpiperazin-1-yl)sulfonyl)-2-methylpiperidin-4-yl)isoxazole-3-carboxamide] |  | 
